Eight compounds from patent publication US5218126A, “Halogen substituted mitomycin derivatives” (Kyowa Hakko Kogyo Co., Ltd., priority 1990, dated 1993) can be followed below.

Data set [1] concerns Sarcoma 180 solid tumor. The data set can be described thus: Anti-tumor Activity to Sarcoma 180 Solid Tumor. Type of data set: in vivo. The note with it: Mus musculus, iv, 168 h; male ddY mice, s.c. Sarcoma 180, single i.v. injection 24 hours after implantation, tumor volume at 7 days; read-out: ED50 (dose showing T/C=0.5). As to the method:
Anti-tumor Activity to Sarcoma 180 Solid Tumor
5×10^6 Sarcoma 180 cells were abdominally implanted into a ddY mouse and the cells were collected from the ascites of the mouse 7 days after the implantation. The cells were washed once with a sterilized physiological saline solution and then suspended in a sterilized physiological saline solution to prepare a cell suspension of 5×10^7 cells/ml. 0.1 ml of the cell suspension was subcutaneously implanted into the right axiallary space of male ddY mice weighting 20±2 g.
A test compound was dissolved in a physiological saline solution or a Tween 80-containing physiological saline solution, and 0.1 to 0.2 ml of the solution was intravenously injected to five mice as one group 24 hours after the implatation of the tumor cells.
The anti-tumor activity of the test compound was determined by measuring the major diameter (a) and the minor diameter (b) of the tumor 7 days after the implantation of tumor cells, and the value of (a×b^2 /2), which corresponds to the volume of the tumor, was calculated. The intended anti-tumor activity is represented by a ratio of T/C, in which C indicates the tumor volume of mice of the control group to which no test compound was administered and T indicates the tumor volume of mice of the test group to which the test compound was administered. T/C at each dose given was plotted in a graph in which T/C is shown by an ordinary scale on the vertical axis and a dose is shown by a logarithmic scale on the horizontal axis. The relation between the dose and T/C was determined to be a straight line by the least-squares method. From the regression formula of the straight line thus obtained, the dose of showing T/C=0.5 is calculated to give ED50.

A short description of data set [2]: Acute Toxicity. Conditions: mouse, in vivo, iv; ddY mice, single i.v. injection, 14 days observation, Behrens Kaerber's method. Here is the method: A test compound was intravenously injected once to five ddY mice as one group. […] LD50 was calculated from the death rate of each group according to the Behrens Kaerber's method.
In data set [3] the test system is HeLa S3 cells. The data set can be described thus: Growth Inhibition Test on HeLa S3 Cells. Format: cell-based. Conditions: Homo sapiens, 1 hour exposure, then 72 hours incubation at 37° C., Neutral Red staining, read-out: IC50 (concentration which inhibits cell growth by 50%). As to the method:
Growth Inhibition Test on HeLa S3 Cells
HeLa S3 cells were suspended in an MEM medium containing 10% fetal calf serum and 2 mM glutamine at a concentration of 3×10^4 cells/ml, and 0.1 ml of the cell suspension was put into each well of a 96-well microtiter plate.
After culturing at 37° C. overnight in a carbon dioxide gas incubator, 0.05 ml of a test sample appropriately diluted with the medium was added to each well. The cells were further cultured for one hour in the carbon dioxide gas incubator and the culture supernatant was removed. The residue was washed once with a phosphate buffer saline [PBS(-)] and 0.1 ml of a fresh medium was added to each well, and the cells were further incubated at 37° C. for 72 hours in the carbon dioxide gas incubator. After removal of the supernatant, 0.1 ml of culture medium containing 0.02% Neutral Red was added to each well, and the cells were further incubated at 37° C. for one hour in the carbon dioxide gas incubator to stain the cells. After removal of the culture supernatant, each well was washed once with a physiological saline, and the dye was extracted with 0.001N HCl/30% methanol. Absorbance of the extract at 550 nm was measured with a microplate reader. The cell growth inhibition percentage was calculated according to the following formula from the absorbance of the extract of the cells treated with the test compound in various concentrations and that of intact cells. [formula]
From the cell growth inhibition percentage thus obtained, the concentration of the test compound which inhibits cell growth by 50% (IC50) was determined.

What is called LD50 is the dose at which mortality reaches 50%. The low end stands for a more toxic substance, the high end for a less toxic substance.

In the case of `COC1=CC(=O)C2=C(C1=O)[C@@H](COC(N)=O)[C@@]1(OC)[C@H]3N[C@H]3CN21` [Compound 1, 6-demethylmitomycin A], the ED50 in data set [1] is 1.6 mg/kg. The LD50 at 336 h in data set [2] came to 2.8 mg/kg. For the same compound, the IC50 in data set [3] worked out at 210 nM.
In the same order, the values of `CO[C@@]12[C@H](COC(N)=O)C3=C(C(=O)C=C(N)C3=O)N1C[C@H]1[C@@H]2N1C` (stereo partly shown) [Compound 6, 6-demethylporfiromycin] are 8.4 mg/kg, 18 mg/kg and 7300 nM.
Regarding `CO[C@@]12[C@H](COC(N)=O)C3=C(C(=O)C(Cl)=C(N)C3=O)N1C[C@@H]1N[C@@H]12` [Compound 7, 6-chloro-6-demethylmitomycin C], the IC50 in data set [3] turned out to be 550 nM.
As to `CO[C@@]12[C@H](COC(N)=O)C3=C(C(=O)C(Br)=C(N)C3=O)N1C[C@@H]1N[C@@H]12` [Compound 8, 6-bromo-6-demethylmitomycin C], the ED50 in data set [1] is 1.6 mg/kg. Besides, the 50% lethal dose (LD50) at 336 h in data set [2] turned out to be 3.2 mg/kg. Besides, the IC50 in data set [3] worked out at 720 nM.
Taken in the same sequence, the figures for `COC1=CC(=O)C2=C(C1=O)[C@H](COC(N)=O)[C@@]1(O)[C@@H]3[C@H](CN21)N3C` (stereo partly shown) [Compound 2, 6-demethylmitomycin B] were 11 mg/kg, over 20 mg/kg and over 10000 nM.
In the same order, the values of `CO[C@@]12[C@H](COC(N)=O)C3=C(C(=O)C=C(N)C3=O)N1C[C@@H]1N[C@@H]12` [Compound 3, 6-demethylmitomycin C] are 2.6 mg/kg, 9.7 mg/kg and 2200 nM.
In the same order, the values of `CN1[C@H]2[C@@H]1CN1C3=C(C(=O)C(N)=CC3=O)[C@H](COC(N)=O)[C@@]21O` (stereo partly shown) [Compound 4, 6-demethylmitomycin D] are 33 mg/kg, over 100 mg/kg and over 31000 nM.
Consider `COC1=CC(=O)C2=C(C1=O)[C@@H](COC(N)=O)[C@@]1(OC)[C@@H]3[C@H](CN21)N3C` (stereo partly shown) [Compound 5, 6-demethylmitomycin F], for which, in data set [1], the ED50 was 7.1 mg/kg. In addition, the median lethal dose (LD50) at 336 h in data set [2] is 26 mg/kg. Further, in data set [3], the IC50 was determined as 130 nM.
